Values quoted from earlier work as cited in publication PMC10797624, “Multitracer Approach to Understanding the Complexity of Reactive Astrogliosis in Alzheimer’s Brains” (ACS Chemical Neuroscience, 2023).

Columns and labels:
MAO-B = tested on: MAO-B; set-up: method as in PMID 32646880; details: small brain section autoradiography
[1] = tested on: [^3H]-BU99008 binding sites; set-up: method as in PMID 33888872; details: L-deprenyl vs [^3H]-BU99008

| Structure (SMILES) | displacement of [^18F]-SMBT-1 binding (MAO-B) | binding sites and affinities vs [^3H]-BU99008 [1] |
| --- | --- | --- |
| NCCNC(=O)c1ccc(Cl)cn1 [lazabemide] | fully displaced |  |
| C#CCN(C)[C@H](C)Cc1ccccc1 [L-deprenyl] |  | multiple binding sites with pico- and micromolar affinities |
